Source: US10124065B2, “Lipids and lipid compositions for the delivery of active agents” (Novartis AG, priority 2013, dated 2018)

Tests used:
[1] = pKa measurement of cationic lipid (TNS fluorescence); format: physicochemical; details: pKa of the cationic lipid of formula (I); Table 4; listed as Ex. 38
Description: Unless indicated otherwise, all pKa's referred to herein were measured at standard temperature and pressure. Also, unless otherwise indicated, all references to pKa are references to pKa measured using the following technique. 2 mM solution of lipid in ethanol was prepared by weighing the lipid and then dissolving it in ethanol. 0.3 mM solution of fluorescent probe TNS in ethanol:methanol 9:1 was prepared by first making 3 mM solution of TNS in methanol and then diluting to 0.3 mM with ethanol. An aqueous buffer containing 200 mM sodium phosphate dibasic and 100 mM citric acid was prepared. […] Using the Hamilton Microlab Star high throughput liquid handler and Hamilton run control software Software, 7.5 uL of probe/lipid mix were added to 242.5 uL of buffer in a 1 mL 96 well plate (model NUNC 260252, […] Nunc International). This was done with all twelve buffers. After mixing in 1 mL 96 well plate, 100 uL of each probe/lipid/buffer mixture was transferred to a 250 uL black with clear bottom 96 well plate (model COSTAR 3904, Corning). The fluorescence measurements are carried out on the SpectraMax M5 spectrophotometer using software SoftMax pro 5.2 and following parameters: After the measurement, the background fluorescence value of an empty well on the 96 well plate was subtracted from each probe/lipid/buffer mixture. The fluorescence intensity values were then normalized to the value at lowest pH. The normalized fluorescence intensity vs. pH chart was then plotted in the Microsoft Excel software. The twelve points were connected with a smooth line. The point on the line at which the normalized fluorescence intensity was equal to 0.5 was found. […] The pKa determined using this method is precise to about 0.1 pKa units.

[2] = Polydispersity index (PDI) of lipid nanoparticle (dynamic light scattering); format: physicochemical
Description: Unless indicated otherwise, all PDIs referred to herein are the PDI of the fully formed nanoparticle, as measured by dynamic light scattering on a Malvern Zetasizer. The nanoparticle sample was diluted in phosphate buffered saline (PBS) so that the count rate was approximately 200-400 kcts. The data is presented in Tables 4 and 5 as a weighted average of the intensity measure.

| pKa [1] | PDI ([2]; FVII siRNA LNP, Chol/DSPC/PEG-DMG, molar ratio 45/44/9/2) | PDI ([2]; FVII siRNA LNP, Chol/DSPC/S010, molar ratio 45/44/9/2) | PDI ([2]; PLK1-424 siRNA LNP, Chol/DSPC/S010 45/44/9/2) | PDI ([2]; leptin mRNA lipid nanoparticles) | SMILES |
| --- | --- | --- | --- | --- | --- |
| 5.9 | – | – | – | – | CCCCC/C=C\C/C=C\CCCCCCCC(=O)OCCCCOc1cc(CN(C)C)cc(OCCCCOC(=O)CCCCCCC/C=C\C/C=C\CCCCC)c1 [Example 38, (9Z,9′Z,12Z,12′Z)-((5-((dimethylamino)methyl)-1,3-phenylene)bis(oxy))bis(butane-4,1-diyl)bis(octadeca-9,12-dienoate)] |
| – | 0.03 | 0.059 | 0.038 | 0.102 | CCCCCCCCCCOC(=O)CCCCCCCOc1cc(CN(C)C)cc(OCCCCCCCC(=O)OCCCCCCCCCC)c1 [Example 57, didecyl 8,8′-((5-((dimethylamino)methyl)-1,3-phenylene)bis(oxy))dioctanoate] |
